From patent US12649750B2, “Macrocyclic compounds, compositions, and methods of using thereof” (Sionna Therapeutics Inc., priority 2022, dated 2026)

What was measured:
CFTR = molecular target: T1, CFTR (Homo sapiens, UniProt P13569, DEL508-508); assay: TECC24 AUC fold over DMSO @10 μM, CFTR-mediated transepithelial chloride transport in CF-HBE cells; type: cell-based; conditions: test agent AUC divided by DMSO vehicle AUC, primary CF-HBE cells, ΔF508 homozygous donor, 48 hours incubation
T1 construct: Primary human bronchial epithelial cells from a ΔF508 homozygous CF donor; host or cells: primary human bronchial epithelial cells (CF-HBE), ΔF508 homozygous donor
T1 sequence (P13569 with tags, fused parts or gaps DEL508-508): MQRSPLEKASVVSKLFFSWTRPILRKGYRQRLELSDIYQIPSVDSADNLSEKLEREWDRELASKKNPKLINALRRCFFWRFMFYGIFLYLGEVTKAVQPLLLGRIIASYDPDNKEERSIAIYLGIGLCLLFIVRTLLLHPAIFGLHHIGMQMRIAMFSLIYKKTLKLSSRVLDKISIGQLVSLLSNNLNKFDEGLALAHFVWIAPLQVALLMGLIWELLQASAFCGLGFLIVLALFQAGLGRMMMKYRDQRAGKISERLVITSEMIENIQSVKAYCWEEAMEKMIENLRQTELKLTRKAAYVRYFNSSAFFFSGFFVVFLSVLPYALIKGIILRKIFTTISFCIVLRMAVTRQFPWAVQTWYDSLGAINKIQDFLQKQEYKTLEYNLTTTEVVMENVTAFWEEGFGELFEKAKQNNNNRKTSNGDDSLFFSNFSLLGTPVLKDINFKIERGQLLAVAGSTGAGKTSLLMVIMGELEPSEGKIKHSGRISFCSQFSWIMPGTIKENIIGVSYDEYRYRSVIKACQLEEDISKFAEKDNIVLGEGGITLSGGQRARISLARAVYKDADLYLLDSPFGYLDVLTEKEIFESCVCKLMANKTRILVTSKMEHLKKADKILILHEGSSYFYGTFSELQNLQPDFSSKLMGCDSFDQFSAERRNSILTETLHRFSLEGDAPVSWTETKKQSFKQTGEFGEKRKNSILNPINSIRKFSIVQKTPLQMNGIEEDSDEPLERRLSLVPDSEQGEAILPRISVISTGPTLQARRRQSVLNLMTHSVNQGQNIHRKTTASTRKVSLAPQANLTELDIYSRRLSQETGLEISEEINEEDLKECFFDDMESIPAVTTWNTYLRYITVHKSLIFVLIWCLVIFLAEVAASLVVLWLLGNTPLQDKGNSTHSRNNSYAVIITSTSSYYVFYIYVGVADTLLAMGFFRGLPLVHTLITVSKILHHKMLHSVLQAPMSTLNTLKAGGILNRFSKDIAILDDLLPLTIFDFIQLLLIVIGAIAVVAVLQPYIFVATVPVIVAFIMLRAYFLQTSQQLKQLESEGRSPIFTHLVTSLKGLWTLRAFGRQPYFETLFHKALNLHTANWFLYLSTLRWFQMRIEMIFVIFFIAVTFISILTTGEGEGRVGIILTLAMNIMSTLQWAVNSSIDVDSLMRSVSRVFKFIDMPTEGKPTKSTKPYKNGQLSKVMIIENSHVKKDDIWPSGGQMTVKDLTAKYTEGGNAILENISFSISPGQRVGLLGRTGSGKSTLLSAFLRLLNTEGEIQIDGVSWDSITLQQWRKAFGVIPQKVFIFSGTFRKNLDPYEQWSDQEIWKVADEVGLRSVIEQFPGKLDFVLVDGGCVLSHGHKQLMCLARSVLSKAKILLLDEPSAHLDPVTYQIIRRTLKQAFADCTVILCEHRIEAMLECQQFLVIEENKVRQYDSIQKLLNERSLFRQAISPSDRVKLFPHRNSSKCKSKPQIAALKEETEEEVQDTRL
Summary of the method: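 Value is ratio of test-agent to DMSO AUC of equivalent transepithelial Cl− current, integrated from forskolin (10 μM) stimulation to CFTR inhibitor-172 (20 μM) block, with benzamil 10 μM present. CF-HBE (ΔF508/ΔF508) cultures had 48 h compound exposure at 10 μM, 36.5° C before recording.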

NBD1 = molecular target: T2, NBD1 (Homo sapiens, UniProt P13569); assay: Aggregation analysis using differential static light scattering (DSLS), thermal stability of NBD1 (ΔTagg); type: binding; conditions: ΔTagg versus DMSO control, NBD1 0.2 mg/ml
T2 construct: Purified recombinant NBD1 was produced using previously described methods; made in house
T2 sequence (P13569 423-646 limits assumed): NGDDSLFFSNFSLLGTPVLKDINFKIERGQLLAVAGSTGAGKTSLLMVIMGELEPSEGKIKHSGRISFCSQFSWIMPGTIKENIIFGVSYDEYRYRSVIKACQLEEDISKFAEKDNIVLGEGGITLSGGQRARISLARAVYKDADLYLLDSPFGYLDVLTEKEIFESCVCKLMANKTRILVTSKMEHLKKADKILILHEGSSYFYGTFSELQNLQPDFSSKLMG
Summary of the method: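 Read-out is ΔTagg: the aggregation temperature, taken at the inflection of the light-scattering curve, less the average of DMSO control wells. Recombinant NBD1 (0.2 mg/ml, pH7.6 buffer containing 2 mM ATP) with test compound was heated at 1° C. per minute up to 70° C.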

SMILES	TECC (AUC, 10 μM) (CFTR)	DSLS 3D (100 μM ΔT) (NBD1)
C[C@H](Cc1cccc([C@@]2(C)CCCC(C)(C)CS(=O)(=O)CCc3c(c(F)c(F)c4[nH]ccc34)Oc3ccnc(c3)-c3nc2nn3C)c1)C(=O)O [Compound 221, (2R)-3-[3-[(6R)-21,22-difluoro-3,6,10,10-tetramethyl-12,12-dioxo-24-oxa-12λ6-thia-3,4,19,28,30-pentazapentacyclo[23.3.1.12,5.015,23.016,20]triaconta-1(29),2(30),4,15,17,20,22,25,27-nonaen-6-yl]phenyl]-2-methyl-propanoic Acid]	B (a value between 12-20 is marked “B”)	C (a value greater than 10 °C and less than or equal to 25 °C is marked “C”)
Cn1nc2nc1-c1cc(ccn1)Oc1c(F)cc3[nH]ccc3c1CCS(=O)(=O)CC(C)(C)CCC[C@]2(C)c1cccc(CC(=O)O)c1 [Compound 226, 2-[3-[(6R)-22-Fluoro-3,6,10,10-tetramethyl-12,12-dioxo-24-oxa-12λ6-thia-3,4,19,28,30-pentazapentacyclo[23.3.1.12,5.015,23.016,20]triaconta-1(29),2(30),4,15,17,20,22,25,27-nonaen-6-yl]phenyl]acetic Acid]	C (a value between 20 and 80 is marked “C”)	C (a value greater than 10 °C and less than or equal to 25 °C is marked “C”)
Cn1nc2nc1-c1cc(ccn1)Oc1c(F)cc3[nH]ccc3c1CCS(=O)(=O)CC(C)(C)CCC[C@]2(C)c1cccc(CCO)c1 [Compound 227, 2-[3-[(6R)-22-Fluoro-3,6,10,10-tetramethyl-12,12-dioxo-24-oxa-12λ6-thia-3,4,19,28,30-pentazapentacyclo[23.3.1.12,5.015,23.016,20]triaconta-1(29),2(30),4,15,17,20,22,25,27-nonaen-6-yl]phenyl]ethanol]	B (a value between 12-20 is marked “B”)	C (a value greater than 10 °C and less than or equal to 25 °C is marked “C”)
C[C@@H](Cc1cccc([C@@]2(C)CCCC(C)(C)CS(=O)(=O)CCc3c(c(F)cc4[nH]ccc34)[S+]([O-])c3ccnc(c3)-c3nc2co3)c1)C(=O)O (stereo partly drawn) [Compound 229, (2S)-3-[3-[(6R)-22-Fluoro-6,10,10-trimethyl-12,12,24-trioxo-3-oxa-12λ6,24λ4-dithia-19,28,30-triazapentacyclo[23.3.1.12,5.015,23.016,20]triaconta-1(29),2(30),4,15,17,20,22,25,27-nonaen-6-yl]phenyl]-2-methyl-propanoic Acid]	C (a value between 20 and 80 is marked “C”)	C (a value greater than 10 °C and less than or equal to 25 °C is marked “C”)
C[C@H](Cc1cccc([C@@]2(C)CCCC(C)(C)CS(=O)(=O)CCc3c(c(F)cc4[nH]ccc34)[S+]([O-])c3ccnc(c3)-c3nc2nn3C)c1)C(=O)O (stereo partly drawn) [Compound 231, (2R)-3-[3-[(6R)-22-Fluoro-3,6,10,10-tetramethyl-12,12,24-trioxo-12λ6,24λ4-dithia-3,4,19,28,30-pentazapentacyclo[23.3.1.12,5.015,23.016,20]triaconta-1(29),2(30),4,15,17,20,22,25,27-nonaen-6-yl]phenyl]-2-methyl-propanoic Acid]	C (a value between 20 and 80 is marked “C”)	C (a value greater than 10 °C and less than or equal to 25 °C is marked “C”)
C[C@@H](Cc1cccc([C@@]2(C)CCCC(C)(C)CS(=O)(=O)CCc3c(c(F)cc4[nH]ccc34)Cc3ccnc(c3)-c3nc2nn3C)c1)C(=O)O [Compound 233, (2S)-3-[3-[(6R)-22-Fluoro-3,6,10,10-tetramethyl-12,12-dioxo-12λ6-thia-3,4,19,28,30-pentazapentacyclo[23.3.1.12,5.015,23.016,20]triaconta-1(29),2(30),4,15,17,20,22,25,27-nonaen-6-yl]phenyl]-2-methyl-propanoic Acid]	B (a value between 12-20 is marked “B”)	C (a value greater than 10 °C and less than or equal to 25 °C is marked “C”)
